Patent US10485235B2, “Aryloxypyrimidinyl ethers as herbicides” (FMC Corporation, priority 2015, dated 2019)

Columns and labels:
Assay type in all cases: in vivo
corn (Zea mays) = assay: Test A postemergence, corn; conditions: Zea mays, post-emergence, 240 h, postemergence, 0 to 100 scale, 0 is no effect, 100 is complete control, approximately 10 days; for Corn plant response rating (crop injury, 0 = no effect, 100 = complete kill) at 31 g/ha: 31 g ai/ha; for Corn plant response rating (crop injury, 0 = no effect, 100 = complete kill) at 125 g/ha: 125 g ai/ha
Method in brief: (§1)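 Ratings run 0–100, where 100 is complete control, and were scored visually against untreated plants about 10 days after treatment under greenhouse conditions. Formulated chemicals were sprayed either onto the soil surface after seeding (preemergence) or onto one- to two-leaf seedlings 2–10 cm high (postemergence).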

[1] = tested on: pigweed (Amaranthus retroflexus); assay: Test A preemergence, pigweed; conditions: Amaranthus retroflexus, pre-emergence, 240 h, Preemergence, 0 to 100 scale (0 no effect, 100 complete control), read-out: Plant response rating, Pigweed; for pest or weed control at 31 g/ha: 31 g ai/ha; for pest or weed control at 125 g/ha: 125 g ai/ha
Method in brief: as §1

kochia (Kochia scoparia) [2] = assay: Test A preemergence, kochia; conditions: Bassia scoparia, pre-emergence, 240 h, Preemergence, 0 to 100 scale (0 no effect, 100 complete control), read-out: Plant response rating, Kochia; for pest or weed control at 31 g/ha: 31 g ai/ha; for pest or weed control at 125 g/ha: 125 g ai/ha
Method in brief: as §1

[3] = tested on: galium (catchweed bedstraw, Galium aparine); assay: Test A postemergence, galium; conditions: Galium, post-emergence, 240 h, postemergence, 0 to 100 scale, 0 is no effect, 100 is complete control, approximately 10 days, read-out: Plant response rating, Galium; for pest or weed control at 31 g/ha: 31 g ai/ha; for pest or weed control at 125 g/ha: 125 g ai/ha
Method in brief: as §1

[4] = tested on: ryegrass, Italian (Italian ryegrass, Lolium multiflorum); assay: Test A postemergence, Italian ryegrass; conditions: Lolium multiflorum, post-emergence, 240 h, postemergence, 0 to 100 scale, 0 is no effect, 100 is complete control, approximately 10 days, read-out: Plant response rating, Ryegrass, Italian; for pest or weed control at 31 g/ha: 31 g ai/ha; for pest or weed control at 125 g/ha: 125 g ai/ha
Method in brief: as §1

[5] = tested on: ragweed (common ragweed, Ambrosia elatior); assay: Test A preemergence, ragweed; conditions: Ambrosia artemisiifolia, pre-emergence, 240 h, Preemergence, 0 to 100 scale (0 no effect, 100 complete control), read-out: Plant response rating, Ragweed; for pest or weed control at 31 g/ha: 31 g ai/ha; for pest or weed control at 125 g/ha: 125 g ai/ha
Method in brief: as §1

[6] = tested on: barnyardgrass (Echinochloa crus-galli); assay: Test A preemergence, barnyardgrass; conditions: Echinochloa crus-galli, pre-emergence, 240 h, Preemergence, 0 to 100 scale (0 no effect, 100 complete control), read-out: Plant response rating, Barnyardgrass; for pest or weed control at 31 g/ha: 31 g ai/ha; for pest or weed control at 125 g/ha: 125 g ai/ha
Method in brief: as §1

[7] = tested on: wheat (Triticum aestivum); assay: Test A postemergence, wheat; conditions: Triticum aestivum, post-emergence, 240 h, postemergence, 0 to 100 scale, 0 is no effect, 100 is complete control, approximately 10 days, read-out: Plant response rating, Wheat; for plant injury at 31 g/ha: 31 g ai/ha; for plant injury at 125 g/ha: 125 g ai/ha
Method in brief: as §1

[8] = tested on: foxtail, giant (giant foxtail, Setaria faberii); assay: Test A postemergence, giant foxtail; conditions: Setaria faberi, post-emergence, 240 h, postemergence, 0 to 100 scale, 0 is no effect, 100 is complete control, approximately 10 days, read-out: Plant response rating, Foxtail, Giant; for pest or weed control at 31 g/ha: 31 g ai/ha; for pest or weed control at 125 g/ha: 125 g ai/ha
Method in brief: as §1

[9] = tested on: barnyardgrass (Echinochloa crus-galli); assay: Test A postemergence, barnyardgrass; conditions: Echinochloa crus-galli, post-emergence, 240 h, postemergence, 0 to 100 scale, 0 is no effect, 100 is complete control, approximately 10 days, read-out: Plant response rating, Barnyardgrass; for pest or weed control at 31 g/ha: 31 g ai/ha; for pest or weed control at 125 g/ha: 125 g ai/ha
Method in brief: as §1

kochia (Kochia scoparia) [10] = assay: Test A postemergence, kochia; conditions: Bassia scoparia, post-emergence, 240 h, postemergence, 0 to 100 scale, 0 is no effect, 100 is complete control, approximately 10 days, read-out: Plant response rating, Kochia; for pest or weed control at 31 g/ha: 31 g ai/ha; for pest or weed control at 125 g/ha: 125 g ai/ha
Method in brief: as §1

[11] = tested on: blackgrass (Alopecurus myosuroides); assay: Test A postemergence, blackgrass; conditions: Alopecurus myosuroides, post-emergence, 240 h, postemergence, 0 to 100 scale, 0 is no effect, 100 is complete control, approximately 10 days, read-out: Plant response rating, Blackgrass; for pest or weed control at 31 g/ha: 31 g ai/ha; for pest or weed control at 125 g/ha: 125 g ai/ha
Method in brief: as §1

[12] = tested on: sedge, umbrella (small-flower umbrella sedge, Cyperus difformis); assay: Test B flooded paddy test, umbrella sedge; conditions: Cyperus difformis; 250 g ai/ha, Flood; visual rating after 13 to 15 days; scale 0 to 100, 0 is no effect, 100 is complete control; read-out: Plant response rating, Sedge, Umbrella
Method in brief: (§2)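 Seedlings at the 2-leaf stage are flooded to 3 cm and treated via the paddy water. Greenhouse plants are compared with controls after 13 to 15 days and given a 0 (no effect) to 100 (complete control) rating.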

[13] = tested on: ducksalad (Heteranthera limosa); assay: Test B flooded paddy test, ducksalad; conditions: Heteranthera limosa; 250 g ai/ha, Flood; visual rating after 13 to 15 days; scale 0 to 100, 0 is no effect, 100 is complete control; read-out: Plant response rating, Ducksalad
Method in brief: as §2

SMILES	Corn plant response rating (crop injury, 0 = no effect, 100 = complete kill) at 31 g/ha (corn (Zea mays)) [%]	Corn plant response rating (crop injury, 0 = no effect, 100 = complete kill) at 125 g/ha (corn (Zea mays)) [%]	pest or weed control at 31 g/ha [1] [%]	pest or weed control at 125 g/ha [1] [%]	pest or weed control at 31 g/ha (kochia (Kochia scoparia) [2]) [%]	pest or weed control at 125 g/ha (kochia (Kochia scoparia) [2]) [%]	pest or weed control at 31 g/ha [3] [%]	pest or weed control at 125 g/ha [3] [%]	pest or weed control at 31 g/ha [4] [%]	pest or weed control at 125 g/ha [4] [%]	pest or weed control at 31 g/ha [5] [%]	pest or weed control at 125 g/ha [5] [%]	pest or weed control at 31 g/ha [6] [%]	pest or weed control at 125 g/ha [6] [%]	plant injury at 31 g/ha [7] [%]	plant injury at 125 g/ha [7] [%]	pest or weed control at 31 g/ha [8] [%]	pest or weed control at 125 g/ha [8] [%]	pest or weed control at 31 g/ha [9] [%]	pest or weed control at 125 g/ha [9] [%]	also measured
N#Cc1cccc(Oc2ncc(Cl)cn2)c1OCC(F)(F)F [Compound 1]	10	10	100	100	60	100	10	40	0	0	0	100	10	80	0	0	10	20	0	30	pest or weed control at 31 g/ha (kochia (Kochia scoparia) [10]): 60%; pest or weed control at 125 g/ha (kochia (Kochia scoparia) [10]): 80%; pest or weed control at 31 g/ha [11]: 0%; pest or weed control at 125 g/ha [11]: 20%
N#Cc1cccc(Oc2ncc(F)cn2)c1OCCCC(F)(F)F [Compound 4, 3-[(5-fluoro-2-pyrimidinyl)oxy]-2-(4,4,4-trifluorobutoxy)benzonitrile]	40	90	90	100	40	90	50	90	0	40	10	30	60	100	20	20	70	100	20	90	pest or weed control at 250 g/ha [12]: 95%; pest or weed control at 250 g/ha [13]: 90%; pest or weed control at 31 g/ha (kochia (Kochia scoparia) [10]): 90%; pest or weed control at 125 g/ha (kochia (Kochia scoparia) [10]): 100%; pest or weed control at 31 g/ha [11]: 40%; pest or weed control at 125 g/ha [11]: 90%
N#Cc1cccc(Oc2ncc(Cl)cn2)c1OCCCC(F)(F)F [Compound 5, 3-[(5-chloro-2-pyrimidinyl)oxy]-2-(4,4,4-trifluorobutoxy)benzonitrile]	50	80	90	90	90	100	80	100	20	40	10	10	80	100	20	40	60	100	70	100	pest or weed control at 250 g/ha [12]: 95%; pest or weed control at 250 g/ha [13]: 90%; pest or weed control at 31 g/ha (kochia (Kochia scoparia) [10]): 100%; pest or weed control at 125 g/ha (kochia (Kochia scoparia) [10]): 100%; pest or weed control at 31 g/ha [11]: 30%; pest or weed control at 125 g/ha [11]: 90%
N#Cc1cccc(Oc2ncc(F)cn2)c1OCC(F)(F)F [Compound 41]	0	10	100	100	50	100	10	20	0	10	0	20	0	40	0	0	0	0	0	0	pest or weed control at 31 g/ha (kochia (Kochia scoparia) [10]): 30%; pest or weed control at 125 g/ha (kochia (Kochia scoparia) [10]): 60%; pest or weed control at 31 g/ha [11]: 0%; pest or weed control at 125 g/ha [11]: 10%
